Source: patent US8865191B2, “Lipid composition and skin care formulation containing the same” (Takasago International Corporation, priority 2003, dated 2014)

Experiment: Liquid crystal dispersion system formation with changed component (i)
Type: physicochemical
Conditions: component (i): phytosterol 2, cetanol 5, Table 6 component 3, δ-tocopherol 0.1 parts by weight
Description: The racemic ceramide was obtained by converting a racemic sphinganine obtained by the method by D. Shapiro., et al., (J. Am. Chem. Soc., 80, 2170(1958)) into its stearoyl form.

SMILES: CCCCCCCCCCCCCCCCCC(=O)NC(CO)C(O)CCCCCCCCCCCCCCC (racemic) [racemic ceramide]
- System morphology: difficult to form a stable liquid crystal dispersion system
